From patent US5001160A (priority 1989, dated 1991)
Structures can show the parent of a compound that is named as a salt.

biological target: postsynaptic muscarinic cholinergic receptors (bladder detrusor muscle) (Cavia porcellus, UniProt H0W1Z3); assay: cell-based; set-up: species or system guinea pig; details: not given
Sequence (H0W1Z3 1-590): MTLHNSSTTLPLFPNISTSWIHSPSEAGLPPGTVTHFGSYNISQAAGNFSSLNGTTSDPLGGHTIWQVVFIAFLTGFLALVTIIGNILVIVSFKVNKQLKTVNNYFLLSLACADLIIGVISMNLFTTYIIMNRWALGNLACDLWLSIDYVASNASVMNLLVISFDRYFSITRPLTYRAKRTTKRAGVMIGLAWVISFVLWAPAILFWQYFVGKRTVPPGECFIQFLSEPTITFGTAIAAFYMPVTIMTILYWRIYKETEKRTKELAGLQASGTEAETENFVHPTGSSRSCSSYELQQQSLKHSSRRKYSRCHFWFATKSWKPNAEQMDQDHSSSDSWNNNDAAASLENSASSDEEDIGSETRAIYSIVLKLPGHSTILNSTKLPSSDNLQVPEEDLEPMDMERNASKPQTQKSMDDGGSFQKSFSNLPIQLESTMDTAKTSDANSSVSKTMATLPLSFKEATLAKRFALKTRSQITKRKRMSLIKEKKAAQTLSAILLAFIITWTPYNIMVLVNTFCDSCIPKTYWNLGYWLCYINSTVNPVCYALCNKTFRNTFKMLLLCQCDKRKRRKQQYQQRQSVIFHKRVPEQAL

SMILES | Kb
O=C(CN1CCNCC1)C(O)(c1ccccc1)C1CCC1 (centres unmarked) [1-Cyclobutyl-1-hydroxy-1-phenyl-3-piperazinyl-2-propanone Dihydrochloride] | 86 nM
C=CCN1CCN(CC(=O)C(O)(c2ccccc2)C2CCC2)CC1 (centres unmarked) [1-Cyclobutyl-1-hydroxy-3-(4-allyl-1-piperazinyl)-1-phenyl-2-propanone Dihydrochloride] | 65 nM
O=C(CN1CCN(C(c2ccccc2)c2ccccc2)CC1)C(O)(c1ccccc1)C1CCC1 (centres unmarked) [1-Cyclobutyl-1-hydroxy-3-(4-benzyhydryl-1-piperazinyl)-1-phenyl-2-propanoneDihydrochloride] | No Effect at 1 μM
O=C(CN1CCN(C2CCC2)CC1)C(O)(c1ccccc1)C1CCC1 (centres unmarked) [1-Cyclobutyl-1-hydroxy-3-(4-cyclobutyl-1-piperazinyl)-1-phenyl-2-propanone Dihydrochloride] | 230 nM
CCOC(=O)N1CCN(CC(=O)C(O)(c2ccccc2)C2CCC2)CC1.Cl (centres unmarked) [1-Cyclobutyl-1-hydroxy-3-(4-ethoxycarbonyl-1-piperazinyl)-1-phenyl-2-propanone Hydrochloride] | No Effect at 1 μM
CN1CCN(CC(=O)C(O)(c2ccccc2)C2CCC2)CC1 (centres unmarked) [1-Cyclobutyl-1-hydroxy-3-(4-methyl-1-piperazinyl)-1-phenyl-2-propanone Dihydrochloride] | 24.9 nM
Cl.Cl.O=C(CN1CCN(c2ccccc2)CC1)C(O)(c1ccccc1)C1CCC1 (centres unmarked) [1-Cyclobutyl-1-hydroxy-3-(4-phenyl-1-piperazinyl)-1-phenyl-2-propanone Dihydrochloride] | No Effect at 1 μM
CCCN1CCN(CC(=O)C(O)(c2ccccc2)C2CCC2)CC1 (centres unmarked) [1-Cyclobutyl-1-hydroxy-3-(4-propyl-1-piperazinyl)-1-phenyl-2-propanone Dihydrochloride] | 673 nM
O=C(CN1CCN(CC(=O)C(O)(c2ccccc2)C2CCC2)CC1)N1CCCC1 (centres unmarked) [1-Cyclobutyl-1-hydroxy-3-(4-pyrrolidino-carbonylmethyl-1-piperazinyl)-1-phenyl-2-propanone Dihydrochloride] | 210 nM
CCOc1ccccc1N1CCN(CC(=O)C(O)(c2ccccc2)C2CCC2)CC1.Cl.Cl (centres unmarked) [1-Cyclobutyl-1-hydroxy-3-[4-(2-ethoxyphenyl)-1-piperazinyl]-1-phenyl-2-propanone Dihydrochloride] | No Effect at 1 μM
O=C(CN1CCN(CCO)CC1)C(O)(c1ccccc1)C1CCC1 (centres unmarked) [1-Cyclobutyl-1-hydroxy-3-[4-(2-hydroxyethyl)-1-piperazinyl]-1-phenyl-2-propanone Dihydrochloride] | 201 nM
COc1ccccc1N1CCN(CC(=O)C(O)(c2ccccc2)C2CCC2)CC1.Cl.Cl (centres unmarked) [1-Cyclobutyl-1-hydroxy-3-[4-(2-methoxyphenyl)-1-piperazinyl]-1-phenyl-2-propanone Dihydrochloride] | No Effect at 1 μM
C=C(C)CN1CCN(CC(=O)C(O)(c2ccccc2)C2CCC2)CC1 (centres unmarked) [1-Cyclobutyl-1-hydroxy-3-[4-(2-methyl-2-propenyl)-1-piperazinyl]1-phenyl-2-propanone Dihydrochloride] | 100 nM
C=CCCN1CCN(CC(=O)C(O)(c2ccccc2)C2CCC2)CC1 (centres unmarked) [1-Cyclobutyl-1-hydroxy-3-[4-(3-butenyl)-1-piperazinyl]-1-phenyl-2-propanoneDihydrochloride] | 35 nM
CC(C)=CCN1CCN(CC(=O)C(O)(c2ccccc2)C2CCC2)CC1 (centres unmarked) [1-Cyclobutyl-1-hydroxy-3-[4-(3-methyl-2-butenyl)-1-piperazinyl]-1-phenyl-2-propanone Dihydrochloride] | 19 nM
O=C(CN1CCN(Cc2ccc(Cl)cc2)CC1)C(O)(c1ccccc1)C1CCC1 (centres unmarked) [1-Cyclobutyl-1-hydroxy-3-[4-(4-chlorobenzyl)-]1-piperazinyl]-1-phenyl-2-propanone Dihydrochloride] | 16 nM
Cc1ccc(CN2CCN(CC(=O)C(O)(c3ccccc3)C3CCC3)CC2)cc1 (centres unmarked) [1-Cyclobutyl-1-hydroxy-3-[4-(4-methylbenzyl)-]1-piperazinyl]-1-phenyl-2-propanone Dihydrochloride] | 9.1 nM
O=C(CN1CCN(Cc2ccc([N+](=O)[O-])cc2)CC1)C(O)(c1ccccc1)C1CCC1 (centres unmarked) [1-Cyclobutyl-1-hydroxy-3-[4-(4-nitrobenzyl)-1-piperazinyl]-1-phenyl-2-propanone Dihydrochloride] | 83 nM
Cl.Cl.O=C(CN1CCN(c2ccc([N+](=O)[O-])cc2)CC1)C(O)(c1ccccc1)C1CCC1 (centres unmarked) [1-Cyclobutyl-1-hydroxy-3-[4-(4-nitrophenyl)-1-piperazinyl]-1-phenyl-2-propanone Dihydrochloride] | No Effect at 1 μM
C=CCN1CCN(CC(=O)C(O)(c2ccccc2)C2CCCCC2)CC1 (centres unmarked) [1-Cyclohexyl-1-hydroxy-3-(4-allyl-1-piperazinyl)-1-phenyl-2-propanone Dihydrochloride] | 26 nM
CN1CCN(CC(=O)C(O)(c2ccccc2)C2CCCCC2)CC1 (centres unmarked) [1-Cyclohexyl-1-hydroxy-3-(4-methyl-1-piperazinyl)-1-phenyl-2-propanone] | 25.9 ± 5.3 nM
O=C(CN1CCN(CCO)CC1)C(O)(c1ccccc1)C1CCCCC1 (centres unmarked) [1-Cyclohexyl-1-hydroxy-3-[4-(2-hydroxyethyl)-1-piperazinyl]-1-phenyl-2-propanone Dihydrochloride] | 96 nM

system: bladder contraction (PvesP); assay: not given; details: guinea pig, in vivo, iv

SMILES | T1/2 for recovery toward control level of the PvesP contraction strength parameter
CN1CCN(CC(=O)C(O)(c2ccccc2)C2CCCCC2)CC1 (centres unmarked) [1-Cyclohexyl-1-hydroxy-3-(4-methyl-1-piperazinyl)-1-phenyl-2-propanone] | 3.6 ± 0.3 h
